Assay [1] deals with T1, Serine/threonine-protein kinase ULK1 (Homo sapiens) (UniProt O75385).
T1 sequence (whole entry): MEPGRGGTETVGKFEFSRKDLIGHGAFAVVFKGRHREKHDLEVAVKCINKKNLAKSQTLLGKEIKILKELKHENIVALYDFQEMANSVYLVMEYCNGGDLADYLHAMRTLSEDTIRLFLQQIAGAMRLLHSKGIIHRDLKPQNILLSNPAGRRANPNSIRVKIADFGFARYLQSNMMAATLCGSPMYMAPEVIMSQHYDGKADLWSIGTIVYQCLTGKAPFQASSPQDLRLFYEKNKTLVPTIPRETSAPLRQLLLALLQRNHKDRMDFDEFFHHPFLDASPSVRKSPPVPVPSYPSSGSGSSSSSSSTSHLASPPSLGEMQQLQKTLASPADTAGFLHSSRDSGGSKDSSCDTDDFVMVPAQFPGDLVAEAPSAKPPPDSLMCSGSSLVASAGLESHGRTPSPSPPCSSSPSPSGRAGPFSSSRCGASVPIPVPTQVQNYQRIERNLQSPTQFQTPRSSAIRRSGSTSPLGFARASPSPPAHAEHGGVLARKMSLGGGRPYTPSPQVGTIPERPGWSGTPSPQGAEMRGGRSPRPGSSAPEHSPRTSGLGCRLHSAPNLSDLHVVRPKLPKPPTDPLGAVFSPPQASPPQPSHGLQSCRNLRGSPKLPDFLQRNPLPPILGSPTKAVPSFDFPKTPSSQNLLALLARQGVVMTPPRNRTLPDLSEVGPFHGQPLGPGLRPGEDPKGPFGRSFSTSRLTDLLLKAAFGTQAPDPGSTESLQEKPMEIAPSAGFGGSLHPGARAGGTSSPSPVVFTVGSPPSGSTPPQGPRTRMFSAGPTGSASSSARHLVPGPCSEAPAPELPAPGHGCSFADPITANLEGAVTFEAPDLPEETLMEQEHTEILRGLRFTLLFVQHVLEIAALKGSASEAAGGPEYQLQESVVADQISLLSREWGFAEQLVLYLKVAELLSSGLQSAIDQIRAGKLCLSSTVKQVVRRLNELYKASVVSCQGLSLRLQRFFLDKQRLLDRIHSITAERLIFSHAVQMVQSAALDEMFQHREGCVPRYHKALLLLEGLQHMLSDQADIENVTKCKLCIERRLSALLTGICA
Nature of the assay: Inhibition of ULK1 (unknown origin) at 10 uM after 120 mins P33 radiolabeled kinase activity assay.

For assay [2], the target named is Protein kinase C eta type (Homo sapiens) (UniProt P24723). Nature of the assay: Inhibition of PKCeta (unknown origin) at 10 uM after 120 mins P33 radiolabeled kinase activity assay.
The target of assay [3] is TRAF2 and NCK-interacting protein kinase (Homo sapiens) (UniProt Q9UKE5). Nature of the assay: Inhibition of TNIK (unknown origin) at 10 uM after 120 mins P33 radiolabeled kinase activity assay.
For assay [4], the target named is Dual specificity mitogen-activated protein kinase kinase 2 (Homo sapiens) (UniProt P36507). Description: Inhibition of MEK2 (unknown origin) at 10 uM after 120 mins P33 radiolabeled kinase activity assay.
Assay [5] addresses T2, Myosin-IIIb (Homo sapiens) (UniProt Q8WXR4).
T2 sequence (whole entry): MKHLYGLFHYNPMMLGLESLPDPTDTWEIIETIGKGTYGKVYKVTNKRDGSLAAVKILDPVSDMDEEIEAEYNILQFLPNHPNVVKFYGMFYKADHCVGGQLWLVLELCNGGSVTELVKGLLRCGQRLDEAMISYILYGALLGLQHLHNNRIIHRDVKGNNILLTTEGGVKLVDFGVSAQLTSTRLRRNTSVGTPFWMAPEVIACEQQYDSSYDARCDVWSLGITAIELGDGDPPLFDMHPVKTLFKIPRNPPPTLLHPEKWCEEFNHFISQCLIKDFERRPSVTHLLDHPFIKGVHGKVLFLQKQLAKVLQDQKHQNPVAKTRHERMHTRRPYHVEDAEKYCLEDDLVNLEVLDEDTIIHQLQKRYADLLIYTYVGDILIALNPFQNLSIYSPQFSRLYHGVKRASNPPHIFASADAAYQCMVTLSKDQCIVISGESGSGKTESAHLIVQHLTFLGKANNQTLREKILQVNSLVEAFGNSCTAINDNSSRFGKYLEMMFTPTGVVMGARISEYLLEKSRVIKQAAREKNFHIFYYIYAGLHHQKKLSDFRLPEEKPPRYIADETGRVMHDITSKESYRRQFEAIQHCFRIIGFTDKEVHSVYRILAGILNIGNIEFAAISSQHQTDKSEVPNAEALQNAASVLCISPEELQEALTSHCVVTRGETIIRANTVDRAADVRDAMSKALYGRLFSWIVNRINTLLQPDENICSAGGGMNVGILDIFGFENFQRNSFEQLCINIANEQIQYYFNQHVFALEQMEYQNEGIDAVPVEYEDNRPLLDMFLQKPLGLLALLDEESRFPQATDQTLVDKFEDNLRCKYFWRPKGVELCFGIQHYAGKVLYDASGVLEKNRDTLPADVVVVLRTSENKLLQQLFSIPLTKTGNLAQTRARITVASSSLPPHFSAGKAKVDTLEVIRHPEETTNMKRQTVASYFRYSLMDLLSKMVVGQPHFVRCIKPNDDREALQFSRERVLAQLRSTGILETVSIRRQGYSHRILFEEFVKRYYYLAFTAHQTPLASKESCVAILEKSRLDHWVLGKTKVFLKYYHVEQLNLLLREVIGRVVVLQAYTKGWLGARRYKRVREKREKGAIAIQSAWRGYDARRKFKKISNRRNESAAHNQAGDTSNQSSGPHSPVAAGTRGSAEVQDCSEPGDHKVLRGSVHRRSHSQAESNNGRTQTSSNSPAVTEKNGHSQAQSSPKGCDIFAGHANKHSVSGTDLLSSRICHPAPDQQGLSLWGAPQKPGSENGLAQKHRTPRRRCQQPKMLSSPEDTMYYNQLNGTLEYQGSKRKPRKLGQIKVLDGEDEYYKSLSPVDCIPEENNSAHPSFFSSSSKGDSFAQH
Nature of the assay: Inhibition of MYO3b (unknown origin) at 10 uM after 120 mins P33 radiolabeled kinase activity assay.

Assay [6] addresses cAMP-dependent protein kinase catalytic subunit gamma (Homo sapiens) (UniProt P22612). Nature of the assay: Inhibition of PKAcgamma (unknown origin) at 10 uM after 120 mins P33 radiolabeled kinase activity assay.

The results in this text go back to ChEMBL document CHEMBL3627608, “Crystal structures of human RIP2 kinase catalytic domain complexed with ATP-competitive inhibitors: Foundations for understanding inhibitor selectivity” (Bioorg Med Chem, 2015).

Protein kinase C eta type (Homo sapiens), sequence (P24723 whole entry): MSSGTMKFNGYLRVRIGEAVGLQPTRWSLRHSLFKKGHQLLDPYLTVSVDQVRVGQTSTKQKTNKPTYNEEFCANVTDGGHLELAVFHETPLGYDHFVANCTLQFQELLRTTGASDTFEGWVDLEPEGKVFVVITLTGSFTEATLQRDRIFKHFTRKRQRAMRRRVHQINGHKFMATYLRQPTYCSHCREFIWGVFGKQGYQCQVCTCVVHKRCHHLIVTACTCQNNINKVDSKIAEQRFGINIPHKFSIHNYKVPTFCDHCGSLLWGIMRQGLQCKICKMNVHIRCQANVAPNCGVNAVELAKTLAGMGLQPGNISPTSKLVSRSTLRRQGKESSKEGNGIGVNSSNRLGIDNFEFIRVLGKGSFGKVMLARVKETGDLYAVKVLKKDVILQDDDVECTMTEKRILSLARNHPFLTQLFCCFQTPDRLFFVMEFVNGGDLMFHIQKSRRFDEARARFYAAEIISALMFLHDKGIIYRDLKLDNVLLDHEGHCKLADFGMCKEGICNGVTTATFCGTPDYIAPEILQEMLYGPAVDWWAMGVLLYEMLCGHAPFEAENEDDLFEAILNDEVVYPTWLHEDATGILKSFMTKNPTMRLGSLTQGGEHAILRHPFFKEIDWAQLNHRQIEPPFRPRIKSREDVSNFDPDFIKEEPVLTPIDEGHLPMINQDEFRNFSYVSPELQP
TRAF2 and NCK-interacting protein kinase (Homo sapiens), sequence (Q9UKE5 whole entry, looked up): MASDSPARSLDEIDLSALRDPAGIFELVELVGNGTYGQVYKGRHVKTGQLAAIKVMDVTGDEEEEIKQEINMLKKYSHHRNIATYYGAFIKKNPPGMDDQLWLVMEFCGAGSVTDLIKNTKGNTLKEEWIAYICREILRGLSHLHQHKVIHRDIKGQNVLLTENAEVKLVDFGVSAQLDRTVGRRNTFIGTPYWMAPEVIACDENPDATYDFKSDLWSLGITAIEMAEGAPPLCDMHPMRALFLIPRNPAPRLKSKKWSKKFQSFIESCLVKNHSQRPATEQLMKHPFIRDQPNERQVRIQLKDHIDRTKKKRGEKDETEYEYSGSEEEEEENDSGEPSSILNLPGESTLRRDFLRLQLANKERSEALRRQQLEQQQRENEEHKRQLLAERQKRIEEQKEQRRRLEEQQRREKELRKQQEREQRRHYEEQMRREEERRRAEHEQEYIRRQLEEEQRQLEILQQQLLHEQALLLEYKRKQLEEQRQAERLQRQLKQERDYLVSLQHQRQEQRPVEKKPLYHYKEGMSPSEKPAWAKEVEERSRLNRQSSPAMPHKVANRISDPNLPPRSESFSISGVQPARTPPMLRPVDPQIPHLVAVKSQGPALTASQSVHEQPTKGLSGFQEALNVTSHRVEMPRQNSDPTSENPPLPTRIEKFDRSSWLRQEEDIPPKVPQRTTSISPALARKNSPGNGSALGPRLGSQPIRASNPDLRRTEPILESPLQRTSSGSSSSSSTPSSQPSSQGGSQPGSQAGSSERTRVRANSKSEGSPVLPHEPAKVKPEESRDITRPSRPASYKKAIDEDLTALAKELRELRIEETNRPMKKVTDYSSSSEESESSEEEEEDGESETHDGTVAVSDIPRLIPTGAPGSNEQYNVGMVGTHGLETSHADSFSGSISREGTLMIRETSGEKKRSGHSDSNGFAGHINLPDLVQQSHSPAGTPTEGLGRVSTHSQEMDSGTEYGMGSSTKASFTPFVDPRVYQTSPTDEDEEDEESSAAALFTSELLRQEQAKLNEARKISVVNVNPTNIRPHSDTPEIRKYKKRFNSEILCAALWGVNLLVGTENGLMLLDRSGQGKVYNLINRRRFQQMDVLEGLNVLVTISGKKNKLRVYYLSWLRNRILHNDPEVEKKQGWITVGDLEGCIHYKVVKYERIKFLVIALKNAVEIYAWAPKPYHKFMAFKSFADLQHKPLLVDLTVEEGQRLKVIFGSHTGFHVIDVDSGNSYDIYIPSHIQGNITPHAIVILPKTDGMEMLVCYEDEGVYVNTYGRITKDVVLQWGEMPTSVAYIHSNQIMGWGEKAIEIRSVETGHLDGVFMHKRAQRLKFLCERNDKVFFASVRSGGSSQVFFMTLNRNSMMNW
Dual specificity mitogen-activated protein kinase kinase 2 (Homo sapiens), sequence (P36507 whole entry): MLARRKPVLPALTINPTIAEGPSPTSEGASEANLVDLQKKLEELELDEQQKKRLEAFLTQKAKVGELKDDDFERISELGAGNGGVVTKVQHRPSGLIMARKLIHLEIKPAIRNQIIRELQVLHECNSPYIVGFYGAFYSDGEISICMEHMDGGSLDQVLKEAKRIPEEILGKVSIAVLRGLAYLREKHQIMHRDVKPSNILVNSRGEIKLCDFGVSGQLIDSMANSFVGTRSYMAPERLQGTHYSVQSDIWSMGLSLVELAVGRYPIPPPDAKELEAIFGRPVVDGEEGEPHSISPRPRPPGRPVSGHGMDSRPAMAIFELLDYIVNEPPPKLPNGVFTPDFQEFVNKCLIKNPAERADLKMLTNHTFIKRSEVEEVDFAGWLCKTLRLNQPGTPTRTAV
cAMP-dependent protein kinase catalytic subunit gamma (Homo sapiens), sequence (P22612 2-351 limits assumed): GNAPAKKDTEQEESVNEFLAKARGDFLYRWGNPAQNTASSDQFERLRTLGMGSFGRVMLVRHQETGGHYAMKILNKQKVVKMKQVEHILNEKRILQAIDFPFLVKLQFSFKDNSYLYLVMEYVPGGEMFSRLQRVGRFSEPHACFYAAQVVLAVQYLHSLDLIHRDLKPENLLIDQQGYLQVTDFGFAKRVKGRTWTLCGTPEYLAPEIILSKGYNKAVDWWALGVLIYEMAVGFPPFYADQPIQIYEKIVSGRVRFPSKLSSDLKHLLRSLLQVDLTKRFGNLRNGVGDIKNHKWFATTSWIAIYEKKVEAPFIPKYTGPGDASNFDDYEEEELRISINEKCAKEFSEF

On to `CS(=O)(=O)c1cccc(Nc2nccc(-c3sc(N4CCOCC4)nc3-c3cccc(NS(=O)(=O)c4c(F)cccc4F)c3)n2)c1`, for which the inhibition is 52.4% in assay [1]; -5.94% in assay [2]; 82.6% in assay [3]; 79% in assay [4]; 71.7% in assay [5]; 9.35% in assay [6].

With `CC(C)(C)c1cc(NC(=O)Nc2ccc(Oc3ccncc3)cc2)no1`, the inhibition in assay [1] is 5.71%; in assay [2] it was -2.64%; in assay [3], 93.9%; in assay [4], 52.5%; in assay [5], 92.5%; in assay [6] it was 78.7%.

As for `COCCNC(=O)c1ccc2c(c1)nc(-c1cnc(-c3ccc(Cl)cc3)[nH]1)n2CCOC`, the inhibition in assay [1] is 3.62%; in assay [2], 0.75%; in assay [3] it was 48.4%; in assay [4], -5.83%; in assay [5] it was 2.38%; in assay [6], 0.62%.
